The text below walks through data of ChEMBL document CHEMBL1144034, “Synthesis and anti-protozoal activity of C2-substituted polyazamacrocycles” (Bioorg Med Chem Lett, 2008).

The test system of one series is Trypanosoma brucei. Put plainly: Antiprotozoal activity against Trypanosoma brucei by Alamar blue assay. The class given is functional, organism-based.
Another series has as its system Plasmodium falciparum. Put plainly: Antiprotozoal activity against Plasmodium falciparum. The class given is functional, organism-based.
Series [1] can be described thus: Cytotoxicity against HEK cells. It is filed as cell-based. The settings on record: Homo sapiens, HEK293.
Series [2] in a line: Partition coefficient, log P of the compound. The settings on record: octanol/water. It is filed as physicochemical.

The EC50 is the midpoint of the concentration-response curve. As usually defined, the logP is a log measure of how a compound divides between an organic and an aqueous phase. A low value points to lower lipophilicity. With `COc1ccc(C2CNCCNCCNCCN2)cc1` (configuration not stated), the values for the EC50 (in the series on Trypanosoma brucei; in the series on Plasmodium falciparum; in series [1]) were above 200 µM, 26 µM and above 200 µM, respectively. Also, the logP in series [2] is -0.1.
Take `N=C(N)c1ccc(OCCCCCOc2ccc(C(=N)N)cc2)cc1` [PENTAMIDINE]: in the series with Trypanosoma brucei, a half-maximal response (EC50) required 0.006 µM.
With `c1csc(C2CNCCNCCNCCN2)c1` (configuration not stated), the EC50 with Trypanosoma brucei was 72.3 µM; with Plasmodium falciparum it was 46.7 µM; in series [1], above 200 µM. This compound also returned a logP in series [2] of -0.4.
`Clc1ccc(C2CNCCNCCNCCN2)cc1` (configuration not stated): the values for the EC50 (in the series on Trypanosoma brucei; in the series with Plasmodium falciparum; in series [1]) were 2.8 µM, 2.3 µM and 181 µM, respectively. Moreover, the logP in series [2] worked out at 0.8.
`FC(F)(F)c1ccc(C2CNCCNCCNCCN2)cc1` (configuration not stated): the EC50 with Trypanosoma brucei worked out at 6.8 µM; in the series on Plasmodium falciparum, 5 µM; in series [1] it was 73 µM. The compound further showed a logP in series [2] of 0.8.
As for `CC(C)(C)C1CNCCNCCNCCN1` (configuration not stated), the EC50 in the series with Trypanosoma brucei is 133 µM; with Plasmodium falciparum, above 100 µM; in series [1], above 200 µM. The compound further displayed a lipophilicity (logP) in series [2] of -0.1.
In the case of `CCN(CC)CCCC(C)Nc1ccnc2cc(Cl)ccc12` (configuration not stated) [CHLOROQUINE], the concentration giving a half-maximal response (EC50) with Plasmodium falciparum came to 0.008 µM. This lies in the single-digit nanomolar range.
In the case of `c1ccc(C2CNCCNCCNCCN2)cc1` (configuration not stated), the half-maximal effective concentration (EC50) is above 200 µM in the series with Trypanosoma brucei, 26 µM with Plasmodium falciparum and above 200 µM in series [1]. Besides, the logP in series [2] was -0.2.
`O=[N+]([O-])c1ccc(C2CNCCNCCNCCN2)cc1` (configuration not stated): the 50% effective concentration (EC50) in the series on Trypanosoma brucei was above 200 µM; with Plasmodium falciparum, 13 µM; in series [1] it was above 200 µM. Moreover, in series [2], the lipophilicity (logP) is -0.4.
Compound `c1ccc2c(c1)ccc1cc(C3CNCCNCCNCCN3)ccc12` (configuration not stated) came in with an EC50 in the series with Plasmodium falciparum below 1.5 µM. The log partition coefficient (logP) in series [2] amounted to 2.2.
On to `Brc1ccc(C2CNCCNCCNCCN2)cc1` (configuration not stated), for which the EC50 is 21.8 µM in the series with Trypanosoma brucei, 5.8 µM in the series with Plasmodium falciparum and above 200 µM in series [1]. This compound returned a logP in series [2] of 0.7.
Turning to `C1CNCCNCCNCCN1`, the EC50 in the series with Trypanosoma brucei is above 200 µM; in the series on Plasmodium falciparum, above 100 µM; in series [1], 5 µM. In addition, in series [2], the logP is -1.8.
As for `c1ccc2cc(C3CNCCNCCNCCN3)ccc2c1` (configuration not stated), the EC50 with Trypanosoma brucei is 6.9 µM; with Plasmodium falciparum, 1.7 µM; in series [1], above 200 µM. Also, the logP in series [2] stood at 1.
Turning to `c1ccc2c(c1)Cc1cc(C3CNCCNCCNCCN3)ccc1-2` (configuration not stated), the half-maximal effective concentration (EC50) in the series on Trypanosoma brucei came to 2.6 µM; in the series on Plasmodium falciparum, 1.3 µM; in series [1], 26 µM. The logP in series [2] came out at 1.8.
`FC(F)(F)c1cc(C2CNCCNCCNCCN2)cc(C(F)(F)F)c1` (configuration not stated): the EC50 in the series with Trypanosoma brucei is 6.8 µM; with Plasmodium falciparum it was 4.8 µM; in series [1] it was 61 µM. In addition, in series [2], the log partition coefficient (logP) amounted to 1.7.
